# Results published in patent publication US20210230203A1, “Amphiphilic Kanamycin Compositions and Methods” (priority 2020, published 2021).
# Tests used:
# [1] = system: Fusarium graminearum B4-5A; assay: microbe, parasite or virus in culture; type: cell-based; settings: Fusarium graminearum B4-5A
# [2] = system: Cryptococcus neoformans H99; assay: MIC against fungal strains (Table 1); type: cell-based; settings: Cryptococcus neoformans H99
# [3] = system: Rhodotorula pilimanae; assay: MIC against fungal strains (Table 1); type: cell-based
# [4] = system: P. variatii; assay: MIC against filamentous and dimorphic fungi, CLSI M27 & M38 (Table 3); type: cell-based, Paecilomyces variotii; settings: P. variatii MYA-3630, RPMI 0.165M MOPS, 24-72 hours
# [5] = system: Rhizopus arrhizus; assay: as above; type: cell-based; settings: 24-72 hours
# [6] = system: Saksenaea sp.; assay: as above; type: cell-based, Saksenaea species; settings: 24-72 hours
# [7] = system: Histoplasma capsulatum; assay: microbe, parasite or virus in culture; type: cell-based; settings: Table 3, RPMI 0.165M MOPS, 24-72 hours
# [8] = system: P. variotil; assay: MIC against various species, CLSI M27 & M38 (Table 4); type: cell-based, Paecilomyces variotii; settings: P. variotil QC, RPMI 0.165M MOPS, 24-72 hours
# [9] = system: Fusarium; assay: as above; type: cell-based; settings: 24-72 hours
# [10] = system: S. aureus (ATCC 25923); assay: MIC against bacterial strains; type: cell-based
# [11] = system: S. aureus (ATCC 33591) MRSA; type: cell-based
# [12] = system: S. aureus (ATCC 43300) MRSA; type: cell-based
# [13] = system: C. krusei; assay: MIC against yeast, CLSI M27 & M38 (Table 2); settings: C. krusei ATCC 6258; Table 2; RPMI 0.165M MOPS; 24-72 hours
# [14] = system: Candida guillermondii; assay: MIC against yeast, CLSI M27 & M38 (Table 2); settings: 24-72 hours
# [15] = system: Cryptococcus neoformans; assay: MIC against yeast, CLSI M27 & M38 (Table 2); settings: 24-72 hours
# [16] = system: C. parapsilosis; assay: MIC against various species, CLSI M27 & M38 (Table 4); settings: C. parapsilosis QC ATCC 22019; Table 4; RPMI 0.165M MOPS; 24-72 hours
# [17] = system: C. krusei; assay: as above; settings: C. krusei AC ATCC 6258; Table 4; RPMI 0.165M MOPS; 24-72 hours
# [18] = system: C. albicans; assay: as above; settings: 24-72 hours
# [19] = system: C. auris; assay: as above; settings: 24-72 hours
# [20] = system: A. furnigatus; assay: as above; settings: 24-72 hours
# [21] = system: L. prolificans; assay: as above; settings: L. prolificans LP1; Table 4; RPMI 0.165M MOPS; 24-72 hours
# [22] = system: Scedosporium; assay: as above; settings: 24-72 hours
# [23] = Rhizopus arrhizus 99-880, RPMI 0.165M MOPS
# [24] = Rhizopus arrhizus 99-892, RPMI 0.165M MOPS
# [25] = Rhizopus arrhizus RA1, RPMI 0.165M MOPS
# [26] = Saksenaea sp. SK1, RPMI 0.165M MOPS
# [27] = Saksenaea sp. SK2, RPMI 0.165M MOPS
# [28] = Saksenaea sp. SK3, RPMI 0.165M MOPS
# [29] = Candida guillermondii CGUI1, RPMI 0.165M MOPS
# [30] = Candida guillermondii CGUI2, RPMI 0.165M MOPS
# [31] = Candida guillermondii CGUI3, RPMI 0.165M MOPS
# [32] = Cryptococcus neoformans CN1, RPMI 0.165M MOPS
# [33] = Cryptococcus neoformans H99, RPMI 0.165M MOPS
# [34] = Cryptococcus neoformans USC1597, RPMI 0.165M MOPS
# [35] = C. albicans CA1, RPMI 0.165M MOPS
# [36] = C. albicans CA2, RPMI 0.165M MOPS
# [37] = C. albicans CA3, RPMI 0.165M MOPS
# [38] = C. auris DI17-46, RPMI 0.165M MOPS
# [39] = C. auris DI17-47, RPMI 0.165M MOPS
# [40] = C. auris DI17-48, RPMI 0.165M MOPS
# [41] = A. furnigatus AF1, RPMI 0.165M MOPS
# [42] = A. furnigatus AF2, RPMI 0.165M MOPS
# [43] = A. furnigatus AF3, RPMI 0.165M MOPS
# [44] = Scedosporium SA1, RPMI 0.165M MOPS
# [45] = Scedosporium SB1, RPMI 0.165M MOPS
structure (smiles),measurement,setting,value
CCCCCCCCCCCCCCCC(=O)NC[C@H]1O[C@H](O[C@H]2[C@H](O)[C@@H](O[C@H]3O[C@H](CO)[C@@H](O)[C@H](N)[C@H]3O)[C@H](N)C[C@@H]2N)[C@H](O)[C@@H](O)[C@@H]1O [KI06],Minimum inhibitory concentration,[1],4 µg/mL
same,Minimum inhibitory concentration,[2],4 µg/mL
same,Minimum inhibitory concentration,[3],4 µg/mL
same,Minimum inhibitory concentration 50%,[4],8 µg/mL
same,Minimum inhibitory concentration 100%,[4],16 µg/mL
same,Minimum inhibitory concentration 50%,[5]; [23],2 µg/mL
same,Minimum inhibitory concentration 100%,[5]; [23],4 µg/mL
same,Minimum inhibitory concentration 50%,[5]; [24],2 µg/mL
same,Minimum inhibitory concentration 100%,[5]; [24],4 µg/mL
same,Minimum inhibitory concentration 50%,[5]; [25],2 µg/mL
same,Minimum inhibitory concentration 100%,[5]; [25],4 µg/mL
same,Minimum inhibitory concentration 50%,[6]; [26],1 µg/mL
same,Minimum inhibitory concentration 100%,[6]; [26],1 µg/mL
same,Minimum inhibitory concentration 50%,[6]; [27],1 µg/mL
same,Minimum inhibitory concentration 100%,[6]; [27],2 µg/mL
same,Minimum inhibitory concentration 50%,[6]; [28],1 µg/mL
same,Minimum inhibitory concentration 100%,[6]; [28],2 µg/mL
same,Minimum inhibitory concentration 50%,[7]; Histoplasma capsulatum HC1,2 µg/mL
same,Minimum inhibitory concentration 100%,[7]; Histoplasma capsulatum HC1,4 µg/mL
same,Minimum inhibitory concentration 50%,[7]; Histoplasma capsulatum HC2,4 µg/mL
same,Minimum inhibitory concentration 100%,[7]; Histoplasma capsulatum HC2,8 µg/mL
same,Minimum inhibitory concentration 50%,[7]; Histoplasma capsulatum HC3,2 µg/mL
same,Minimum inhibitory concentration 100%,[7]; Histoplasma capsulatum HC3,4 µg/mL
same,Minimum inhibitory concentration 50%,[8],8 µg/mL
same,Minimum inhibitory concentration 100%,[8],8 µg/mL
same,Minimum inhibitory concentration 50%,"[9]; Fusarium FO1, RPMI 0.165M MOPS",8 µg/mL
same,Minimum inhibitory concentration 100%,"[9]; Fusarium FO1, RPMI 0.165M MOPS",8 µg/mL
same,Minimum inhibitory concentration 50%,"[9]; Fusarium FO2, RPMI 0.165M MOPS",4 µg/mL
same,Minimum inhibitory concentration 100%,"[9]; Fusarium FO2, RPMI 0.165M MOPS",8 µg/mL
same,Minimum inhibitory concentration 50%,"[9]; Fusarium FS1, RPMI 0.165M MOPS",4 µg/mL
same,Minimum inhibitory concentration 100%,"[9]; Fusarium FS1, RPMI 0.165M MOPS",8 µg/mL
same,Minimum inhibitory concentration,[10],16 µg/mL
same,Minimum inhibitory concentration,[11],16 µg/mL
same,Minimum inhibitory concentration,[12],16 µg/mL
same,Minimum inhibitory concentration 50%,[13],8 µg/mL
same,Minimum inhibitory concentration 100%,[13],8 µg/mL
same,Minimum inhibitory concentration 50%,[14]; [29],4 µg/mL
same,Minimum inhibitory concentration 100%,[14]; [29],8 µg/mL
same,Minimum inhibitory concentration 50%,[14]; [30],4 µg/mL
same,Minimum inhibitory concentration 100%,[14]; [30],8 µg/mL
same,Minimum inhibitory concentration 50%,[14]; [31],4 µg/mL
same,Minimum inhibitory concentration 100%,[14]; [31],8 µg/mL
same,Minimum inhibitory concentration 50%,[15]; [32],4 µg/mL
same,Minimum inhibitory concentration 100%,[15]; [32],4 µg/mL
same,Minimum inhibitory concentration 50%,[15]; [33],4 µg/mL
same,Minimum inhibitory concentration 100%,[15]; [33],4 µg/mL
same,Minimum inhibitory concentration 50%,[15]; [34],4 µg/mL
same,Minimum inhibitory concentration 100%,[15]; [34],4 µg/mL
same,Minimum inhibitory concentration 50%,[16],4 µg/mL
same,Minimum inhibitory concentration 100%,[16],8 µg/mL
same,Minimum inhibitory concentration 50%,[17],4 µg/mL
same,Minimum inhibitory concentration 100%,[17],8 µg/mL
same,Minimum inhibitory concentration 50%,[18]; [35],4 µg/mL
same,Minimum inhibitory concentration 100%,[18]; [35],4 µg/mL
same,Minimum inhibitory concentration 50%,[18]; [36],4 µg/mL
same,Minimum inhibitory concentration 100%,[18]; [36],8 µg/mL
same,Minimum inhibitory concentration 50%,[18]; [37],2 µg/mL
same,Minimum inhibitory concentration 100%,[18]; [37],4 µg/mL
same,Minimum inhibitory concentration 50%,[19]; [38],4 µg/mL
same,Minimum inhibitory concentration 100%,[19]; [38],8 µg/mL
same,Minimum inhibitory concentration 50%,[19]; [39],2 µg/mL
same,Minimum inhibitory concentration 100%,[19]; [39],4 µg/mL
same,Minimum inhibitory concentration 50%,[19]; [40],1 µg/mL
same,Minimum inhibitory concentration 100%,[19]; [40],4 µg/mL
same,Minimum inhibitory concentration 50%,[20]; [41],8 µg/mL
same,Minimum inhibitory concentration 100%,[20]; [41],8 µg/mL
same,Minimum inhibitory concentration 50%,[20]; [42],32 µg/mL
same,Minimum inhibitory concentration 100%,[20]; [42],32 µg/mL
same,Minimum inhibitory concentration 50%,[20]; [43],8 µg/mL
same,Minimum inhibitory concentration 100%,[20]; [43],16 µg/mL
same,Minimum inhibitory concentration 50%,[21],2 µg/mL
same,Minimum inhibitory concentration 100%,[21],2 µg/mL
same,Minimum inhibitory concentration 50%,[22]; [44],2 µg/mL
same,Minimum inhibitory concentration 100%,[22]; [44],4 µg/mL
same,Minimum inhibitory concentration 50%,[22]; [45],1 µg/mL
same,Minimum inhibitory concentration 100%,[22]; [45],8 µg/mL
